≈ marks a conversion by molar mass, not a printed value.
Columns and labels:
[1] = system: Mycobacterium tuberculosis; test: Antituberculosis activity against Mycobacterium tuberculosis H37Rv F420 mutant after 2 weeks; type: functional
[2] = system: Mycobacterium tuberculosis; test: Antituberculosis activity against Mycobacterium tuberculosis H37Rv Ddn mutant after 2 weeks; type: functional

SMILES | MIC [1] [µM] | MIC [2] [µM]
Nc1c([N+](=O)[O-])nc2n1C[C@H](OCc1ccc(OC(F)(F)F)cc1)CO2 | >100 | >100
O=[N+]([O-])c1nc2n(c1Cl)C[C@H](OCc1ccc(OC(F)(F)F)cc1)CO2 | 25 (≈ 9.84 µg/mL) | 50 (≈ 19.7 µg/mL)
O=[N+]([O-])c1cn2c(n1)OC[C@@H](OCc1ccc(OC(F)(F)F)cc1)C2 [PRETOMANID] | >100 | >100
N#Cc1c([N+](=O)[O-])nc2n1C[C@H](OCc1ccc(OC(F)(F)F)cc1)CO2 | >100 | >100
O=[N+]([O-])c1nc2n(c1Br)C[C@H](OCc1ccc(OC(F)(F)F)cc1)CO2 | 25 (≈ 11 µg/mL) | 25 (≈ 11 µg/mL)

— ChEMBL document CHEMBL1641439, “The effect of 5-substitution on the electrochemical behavior and antitubercular activity of PA-824” (2011)
